≈ marks a conversion by molar mass, not a printed value. Like-named read-outs stand apart in the source and are kept apart here.
What was measured:
[1] = test system: mustard algae; assay: Remedial laboratory study on algae, change in turbidity; details: for Change in Turbidity at active agent (ppm) five days post treatment: 5 ppm: 5 ppm active ingredient; for Change in Turbidity at active agent (ppm) five days post treatment: 5 ppm / Change in Turbidity at active agent (ppm) five days post treatment: 10 ppm: initial absorbance 0.10; for Change in Turbidity at active agent (ppm) five days post treatment: 10 ppm: 10 ppm active ingredient; for water turbidity: indicating killing of the mustard algae
[2] = Margin of exposure versus NOEL (estimated total daily dose to a child in a swimming pool); details: for Margin of Exposure vs NOEL: agricultural fungicides, Table B; for Margin of Exposure vs NOEL (Target > 100): herbicides, Table A, ratio of NOEL to estimated daily dose, 10 ppm in pool water, child 22 kg, 3 hours per day
Experimental: The herbicide preferably has a margin of exposure versus no observed effect level (“NOEL”) value of greater than 10, more preferably greater than 50, especially greater than 80, and more especially greater than 99. The margin of exposure versus NOEL is determined by estimating the total daily dose of the herbicide to a child in a swimming pool and determining the ratio of the NOEL to this. The total daily exposure may be estimated as follows. Oral exposure is estimated by assuming that the swimmer is in the water 3 hours per day, and that the swimmer ingests 50 milliliters of pool water per hour of swimming. It is also assumed that the herbicide will be present in the pool water at a concentration of 10 parts per million, equivalent to 10 milligrams per liter of pool water. The daily oral exposure is therefore estimated as the product of the swimming duration, the ingestion rate, and the concentration in the pool water. Dermal exposure is estimated by assuming the swimmer is in the water 3 hours per day, that the total body surface area, 8800 square centimeters, is immersed in the water, and that the herbicide permeates the skin at a rate, expressed in centimeters per hour, predicted by a model for skin permeation based on chemical structure, the Skinperm model, developed by W. F. ten Berge. A short description of the Skinperm model, can be accessed at: http://home.wxs.nl/˜wtberge/, which is incorporated herein by reference. The daily dermal exposure is then estimated as the product of the permeation rate, the concentration of the herbicide in the pool water (expressed in milligrams per cubic centimeter), the swimming duration, and the total body surface area. The total daily exposure is estimated as the sum of the daily oral and daily dermal exposure. The daily dose, expressed in milligrams per kilogram bodyweight per day, is then estimated as the total daily exposure divided by an assumed body weight of 22 kilograms.

[3] = agricultural fungicides, Table B
[4] = water, cited from earlier work
[5] = Experimental: The margin of exposure versus NOEL is determined by estimating the total daily dose of the herbicide to a child in a swimming pool and determining the ratio of the NOEL to this. The total daily exposure may be estimated as follows. Oral exposure is estimated by assuming that the swimmer is in the water 3 hours per day, and that the swimmer ingests 50 milliliters of pool water per hour of swimming. It is also assumed that the herbicide will be present in the pool water at a concentration of 10 parts per million, equivalent to 10 milligrams per liter of pool water. The daily oral exposure is therefore estimated as the product of the swimming duration, the ingestion rate, and the concentration in the pool water. Dermal exposure is estimated by assuming the swimmer is in the water 3 hours per day, that the total body surface area, 8800 square centimeters, is immersed in the water, and that the herbicide permeates the skin at a rate, expressed in centimeters per hour, predicted by a model for skin permeation based on chemical structure, the Skinperm model, developed by W. F. ten Berge. A short description of the Skinperm model, can be accessed at: http://home.wxs.nl/˜wtberge/, which is incorporated herein by reference. The daily dermal exposure is then estimated as the product of the permeation rate, the concentration of the herbicide in the pool water (expressed in milligrams per cubic centimeter), the swimming duration, and the total body surface area. The total daily exposure is estimated as the sum of the daily oral and daily dermal exposure. The daily dose, expressed in milligrams per kilogram bodyweight per day, is then estimated as the total daily exposure divided by an assumed body weight of 22 kilograms.
The margin of exposure versus RfD is determined by estimating the total daily dose of the herbicide to a child in a swimming pool, as described above, and determining the ratio of the RfD to this (i.e. margin of exposure/RfD).

[6] = test system: mustard algae; assay: Preventative laboratory study on algae, visual growth score
[7] = agricultural fungicides, Table B
[8] = herbicides, Table A, 10 ppm in pool water, child 22 kg

Row | Structure (SMILES) | Change in Turbidity at active agent (ppm) five days post treatment: 5 ppm ([1]; Table 2) | Change in Turbidity at active agent (ppm) five days post treatment: 10 ppm ([1]; Table 2) | Margin of Exposure vs NOEL [2] | Margin of Exposure vs. RfD [3] | Solubility [4, 7] | also measured
1 | CC1=C(C(=O)Nc2ccccc2)SCCO1 [Carboxin, 5,6-dihydro-2-methyl-N-phenyl-1,4-oxathiin-3-carboxamide] | 0.01 | −0.01 | 116 | 1.2 | – | comments (Remedial Algae Control) ([1]; Table 2): algicidal activity; water turbidity ([1]; Table 2): decreased significantly
2 | N#Cc1c[nH]cc1-c1cccc2c1OC(F)(F)O2 [Fludioxonil, 4-(2,2-difluoro-1,3-bezodioxol-4-yl)-1Hpyrrole-3-carbonitrile] | – | – | 44 | 0.4 | – | –
3 | CC(C)(C)C(=O)C(Oc1ccc(Cl)cc1)n1cncn1 (stereo not drawn) [Triademefon, 1-(4-chlorophenoxy)-3,3-dimethyl-1-(1H-1,2,4-triazol-1-yl)-2-butanone] | – | – | 104 | 0.4 | 260 mg/L (≈ 885 µM) | –
4 | COC(=O)c1cccc(C)c1S(=O)(=O)NC(=O)Nc1nc(OCC(F)(F)F)nc(N(C)C)n1 [Triflusulfuronmethyl] | +0.04 | +0.03 | – | – | – | Solubility ([4]; herbicides, Table A): 110-11000 mg/1; comments (Remedial Algae Control) ([1]; Table 2): Algistatic.; Margin of Exposure vs NOEL (Target > 100) [2]: 33
5 | CCSC(=O)N(CC)C1CCCCC1 [Cycloate, S-ethyl cyclohexyl(ethyl)thiocarbamate] | 0.00 | −0.01 | 1 | 0.001 | – | comments (Remedial Algae Control) ([1]; Table 2): algicidal activity; water turbidity ([1]; Table 2): decreased significantly
6 | C=CCOC(Cn1ccnc1)c1ccc(Cl)cc1Cl (stereo not drawn) [Imazalil, 1-[2-(2,4-dichlorophenyl)-2-(2-propenyloxy)ethyl]-1H-imidazole] | – | – | 17 | 0.2 | 1400 mg/L (≈ 4710 µM) | –
7 | CC(C)N1C(=O)c2ccccc2NS1(=O)=O [Bentazon, 3-isopropyl-1H-2,1,3-benzothiadiazin-4(3H)-one 2,2-dioxide] | – | – | – | – | – | Solubility ([4]; herbicides, Table A): 2300 mg/1; Margin of Exposure vs. RfD (Target > 1) [5, 8]: 0.4; Margin of Exposure vs NOEL (Target > 100) [2]: 41
8 | Nc1cnn(-c2ccccc2)c(=O)c1Cl [Chloridazon, 5-amino-4-chloro-2-phenyl-3(2H)-pyridazinone] | +0.15 | +0.05 | – | – | – | Solubility ([4]; herbicides, Table A): 340 mg/1; comments (Remedial Algae Control) ([1]; Table 2): Algistatic. More
9 | CC(C)(C)C(O)(CCc1ccc(Cl)cc1)Cn1cncn1 (stereo not drawn) [Tebuconazole, H-1,2,4-triazole-1-ethanol-alpha-[2-(4-chlorophenyl)-ethyl]-alpha-(1,1-dimethylethyl)] | – | – | 13 | 0.4 | – | Turbidity @ 5 ppm active ingredient (Change in Turbidity at five days post treatment) ([1]; 5 ppm, Table 4): +0.09; Turbidity @ 10 ppm active ingredient (Change in Turbidity at five days post treatment) ([1]; 10 ppm, Table 4): +0.24; comments (Remedial Algae Control) ([1]; Table 4): more effective; Score @ 10 ppm ([6]; 10 ppm, visual score 0 to 4, 10 days, Table 3): 2; Score @ 15 ppm active ingredient ([6]; 15 ppm, visual score 0 to 4, 10 days, Table 3): 1; Comments (Preventive Algae Control) ([6]; Table 3, at 15 ppm): very little growth
10 | CCCOC(=O)NCCCN(C)C.Cl [Propamocarb, Propyl 3-(dimethylamino)propylcarbamate-hydrochloride] | – | – | 438 | 1.4 | – | –
11 | CO/C=C(/C(=O)OC)c1ccccc1Oc1cc(Oc2ccccc2C#N)ncn1 [Azoxystrobin, Methyl (E)-2-2-6-(2-cyanophenoxy)pyrimidin-4-yloxyphenyl-3-methoxyacrylate] | – | – | 240 | 2.4 | 10 mg/L (≈ 24.8 µM) | –
12 | COCC(=O)N(c1c(C)cccc1C)C(C)C(=O)OC (racemic) [Metalaxyl, N-(2,6-dimethylphenyl)-N-(methoxyacetyl)-DL-alaninemethyl ester] | – | – | 98 | 1 | 8400 mg/L (≈ 30100 µM) | –
13 | CC(=O)O.CCCCCCCCCCCCNC(=N)N [Dodine, 1-dodecylguanidine acetate] | −0.03 | −0.04 | 17 | 0.02 | – | comments (Remedial Algae Control) ([1]; Table 2): algicidal activity; water turbidity ([1]; Table 2): decreased significantly
14 | CC(C)(C)C(O)C(Oc1ccc(Cl)cc1)n1cncn1 (stereo not drawn) [Triademenol, Beta-(4-chlorophenoxy)-alpha-(1,1-dimethylethyl)-1-1H-1,2,4-triazole-1-ethanol] | – | – | 50 | 0.5 | 260 mg/L (≈ 879 µM) | –
15 | COC(=O)c1c(Cl)nn(C)c1S(=O)(=O)NC(=O)Nc1nc(OC)cc(OC)n1 [Halosulfuronmethyl, Methyl 5-{[(4,6-dimethoxy-2-pyrimidinyl)amino]carbonylaminosulfonyl}-3-chloro-1-methyl-1H-pyrazole-4-carboxylate] | – | – | – | – | – | Solubility ([4]; herbicides, Table A): 15 mg/1; Margin of Exposure vs. RfD (Target > 1) [5, 8]: 1.3; Margin of Exposure vs NOEL (Target > 100) [2]: 133
16 | CCCCc1c(C)nc(NCC)[nH]c1=O [Ethirimol, 5-butyl-2-ethylamino-6-methylpyrimidin-4-ol] | – | – | – | – | 250 mg/L (≈ 1190 µM) | –
17 | CC1(C)CON(Cc2ccccc2Cl)C1=O [Clomazone, 2-[(2-chlorophenyl)methyl]-4,4-dimethyl-3-isoxazolidinone] | +0.10 | +0.10 | – | – | – | Margin of Exposure vs. RfD (Target > 1) ([5]; human, 3 hours per day, 10 ppm): 0.02; Score @ ppm active agent: 0 ([6]; 0 ppm, visual score 0 to 4, 10 days, 27° C.): 4; Score @ ppm active agent: 10 ([6]; 10 ppm, visual score 0 to 4, 10 days, 27° C.): 4; Score @ ppm active agent: 15 ([6]; 15 ppm, visual score 0 to 4, 10 days, 27° C.): 3; Comments (Preventive Algae Control) ([6]; Table 1): heavy growth; Margin of Exposure vs NOEL (Target > 100) [2]: 41

Source: patent US6710017B2, “Compositions and methods for controlling algae in recirculating water systems” (Avecia, Inc., priority 2000, dated 2004)
